Data on one compound can be found in patent US11426473B2, “Nitrogen-containing compound or salt thereof, or metal complex thereof” (FUJIFILM Corporation, priority 2013, dated 2022).

Assay [1] has as its system U87MG cells subcutaneous tumor. The experiment in a line: Treatment experiment of subcutaneously U87MG-transplanted model using [90Y]-(A8). The class given is in vivo, mouse. Conditions: 1 dose; for Rate of inhibition: 12 days after administration, above 100% indicated as 100%; for Tumor volume 12 days after administration / Tumor volume At start of administration: n 10, Mean + SD; for Tumor volume At start of administration: baseline; for The number of individuals having tumor regression: of n 10. On the procedure:
(§1) U87MG cells were subcutaneously transplanted at 1×10^7 cells/mouse to the right flank of Balb/c Slc-nu/nu (SLC Japan, Inc., male, 6 weeks old). After 2 weeks, mice whose tumors became 100 to 500 mm^3 were grouped. Phosphate-buffered saline (PBS) or the radiolabeled compound [90Y]-(P2) was administered to the tail veins of the mice, and their tumor volumes were measured. When the tumor volumes of the mice in the PBS group exceeded 2,000 mm^3, which is a humanistic endpoint, the antitumor effect was evaluated. The evaluation values were the rate of inhibition of tumor growth ((1−(Average tumor volume of the compound administration group−Average tumor volume of the compound administration group before administration)/(Average tumor volume of the PBS group−Average tumor volume of the PBS group before administration))×100 (provided that the rate of inhibition exceeding 100% was indicated as 100%)) and the number of individuals having a tumor volume equal to or smaller than that at the start of the experiment (the number of individuals having tumor regression).
U87MG cells were subcutaneously transplanted at 1×10^7 cells/mouse to the right flank of Balb/cAJcl-nu/nu (CLEA Japan, Inc., male, 6 weeks old). After 2 weeks, mice whose tumors became 100 to 500 mm^3 were grouped. Phosphate-buffered saline (PBS) or the radiolabeled compound [^90Y]-(A8) was administered to the tail veins of the mice, and their tumor volumes were measured. The evaluation values were calculated in the same way as in Test Example 8 to evaluate the antitumor effect.

Assay [2] has as its system T98G cell (human glioblastoma) subcutaneous tumor. The experiment in a line: Treatment experiment of subcutaneously T98G-transplanted model using [90Y]-(A8). The class given is in vivo, mouse. Conditions: Dose 11.1 MBa, 1 dose. As for the experimental part: as §1
A mixture of a T98G cell suspension (human glioblastoma, 1×10^7 cells) and Matrigel (Becton, Dickinson and Company) in equal amounts was subcutaneously transplanted to the right flank of Balb/cAJcl-nu/nu (CLEA Japan, Inc., female, 6 weeks old). After 90 days, the mice were grouped when their tumors BECAME 100 to 400 mm^3. Phosphate-buffered saline (PBS) or the radiolabeled compound [^90Y]-(A8) was administered to the tail veins of the mice, and their tumor volumes were measured. The evaluation values were calculated in the same way as in Test Example 8 to evaluate the antitumor effect.

On to `Cc1cc(OCCCC(=O)NCCNC(=O)C(CS(=O)(=O)O)NC(=O)C(CS(=O)(=O)O)NC(=O)CN2CCN(CC(=O)[O-])CCN(CC(=O)[O-])CCN(CC(=O)[O-])CC2)cc(C)c1S(=O)(=O)NC(CNC(=O)c1ccc(CCc2ccc3c(n2)NCCC3)cc1)C(=O)O.[90Y+3]` (stereo not shown) [[^90Y]-(A8)], for which the Rate of inhibition was 69% in assay [1] (Dose 5.55 MBa); 100% in assay [1] (Dose 11.1 MBa); 100% in assay [1] (Dose 14.8 MBa); 100% in assay [2] (22 days after administration, above 100% indicated as 100%). Besides, the “Tumor volume 12 days after administration” value in assay [1] (Dose 5.55 MBa) worked out at 759 ± 344 mm^3; in assay [1] (Dose 11.1 MBa) it was 199 ± 88 mm^3; in assay [1] (Dose 14.8 MBa) it was 251 ± 112 mm^3. Further, the “Tumor volume At start of administration” value in assay [1] (Dose 5.55 MBa) is listed as 239 ± 89 mm^3; in assay [1] (Dose 11.1 MBa) it was 243 ± 101 mm^3; in assay [1] (Dose 14.8 MBa), 251 ± 110 mm^3; in assay [2] (n 8, Mean ± SD, baseline), 201 ± 75 mm^3. Moreover, the “The number of individuals having tumor regression” value in assay [1] (Dose 5.55 MBa) worked out at 0; in assay [1] (Dose 11.1 MBa), 7; in assay [1] (Dose 14.8 MBa), 6; in assay [2] (of n 8), 6. In addition, the “Tumor volume 22 days after administration” value in assay [2] (n 8, Mean ± SD) is given as 123 ± 60 mm^3.
